Test results taken from article PMC8667945, “Structure-based virtual screening and biological evaluation of novel small-molecule BTK inhibitors” (Journal of Enzyme Inhibition and Medicinal Chemistry, 2021).

What was measured:
[1] = target: T1, Bruton tyrosine kinase (BTK) (Homo sapiens, UniProt Q06187); assay: Z'LYTE biochemical kinase inhibition assay, dose response
[2] = target: T1, Bruton tyrosine kinase (BTK); assay: Z'LYTE biochemical kinase inhibition assay, single dose (% inhibition at […])

T1 sequence (Q06187 2-659): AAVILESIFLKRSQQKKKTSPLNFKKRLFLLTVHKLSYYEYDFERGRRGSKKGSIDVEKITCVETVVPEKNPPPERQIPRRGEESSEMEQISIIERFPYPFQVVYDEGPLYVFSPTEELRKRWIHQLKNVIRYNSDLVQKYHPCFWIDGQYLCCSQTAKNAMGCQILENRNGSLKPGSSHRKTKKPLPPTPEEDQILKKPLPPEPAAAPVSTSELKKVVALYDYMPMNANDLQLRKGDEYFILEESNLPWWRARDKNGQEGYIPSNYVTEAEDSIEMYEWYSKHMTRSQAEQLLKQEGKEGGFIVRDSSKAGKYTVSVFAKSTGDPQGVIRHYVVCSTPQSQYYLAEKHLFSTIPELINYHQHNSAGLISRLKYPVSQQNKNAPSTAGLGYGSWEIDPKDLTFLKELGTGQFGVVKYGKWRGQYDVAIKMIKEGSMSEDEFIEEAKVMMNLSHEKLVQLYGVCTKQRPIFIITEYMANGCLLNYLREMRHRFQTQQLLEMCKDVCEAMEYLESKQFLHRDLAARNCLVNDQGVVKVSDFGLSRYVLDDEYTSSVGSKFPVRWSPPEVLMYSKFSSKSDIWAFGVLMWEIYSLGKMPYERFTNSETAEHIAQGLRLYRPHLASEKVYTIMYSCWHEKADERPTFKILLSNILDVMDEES

SMILES	IC50 [1] [nM]	inhibition at 10 µM [2] [%]
C(=Nc1nc(NCc2ccccc2)nc2[nH]ncc12)c1cccs1 [NSC726593]	5000	–
N#CCc1n[nH]c2nc(SCc3ccccc3)nc(Nc3nnc(S)s3)c12 [NSC724520]	2100	–
C(=Nc1nc(N2CCOCC2)nc2[nH]ncc12)c1ccco1 [NSC725686]	840	–
O=C(Sc1nc(SC(=O)c2ccccc2)c2cn[nH]c2n1)c1ccccc1 [NSC722944]	1600	–
COc1ccc(/C=N/Nc2nc(SCc3ccccc3)nc3[nH]ncc23)cc1OC [NSC726558]	–	59
